Experimental data published in PMC7044277 (Nature Communications, 2020).
Values joined by “and” are separate entries in the source; they are usually repeats but may differ in a detail not shown here. Equal values may be shown once.

Columns and labels:
DRD3 F1063.28A = DRD3 F1063.28A (Homo sapiens, UniProt P35462, F106A); test: biochemical; format: binding
DRD2 (D2 long receptor) = DRD2 (D2 long receptor) (Homo sapiens, UniProt P14416); test: Gαi/o-mediated cAMP inhibition (GloSensor split-luciferase cAMP reporter), HEK293T; format: cell-based; conditions: for response, Fig_S11d dose-response source data: replicate values; for Response, Fig_S11b dose-response: individual replicates;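 for all read-outs here: compounds applied 15 min at room temperature, then luciferin plus 400 nM isoproterenol to raise cAMP through endogenous β2-adrenergic receptors, luminescence read 15 min later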
DRD2 (D2 long receptor), sequence (P14416 whole entry): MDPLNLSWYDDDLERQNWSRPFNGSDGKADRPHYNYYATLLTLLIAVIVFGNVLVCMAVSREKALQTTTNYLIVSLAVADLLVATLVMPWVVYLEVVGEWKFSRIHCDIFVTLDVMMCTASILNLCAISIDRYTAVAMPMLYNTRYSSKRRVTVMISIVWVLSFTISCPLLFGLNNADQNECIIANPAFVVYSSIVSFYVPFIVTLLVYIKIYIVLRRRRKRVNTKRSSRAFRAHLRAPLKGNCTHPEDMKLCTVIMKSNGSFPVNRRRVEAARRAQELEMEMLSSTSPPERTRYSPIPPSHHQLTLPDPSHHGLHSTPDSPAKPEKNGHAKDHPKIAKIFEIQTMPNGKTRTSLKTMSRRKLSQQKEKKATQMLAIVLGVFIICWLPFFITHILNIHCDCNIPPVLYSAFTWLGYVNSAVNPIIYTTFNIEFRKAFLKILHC

DRD4 (D4.4 variant) [1] = biological target: T1, DRD4 (D4.4 variant) (Homo sapiens, UniProt P21917); test: β-arrestin2 recruitment (Tango); format: cell-based; conditions: DRD4; Tango; read-out: EC50 ± SEM
T1 sequence (P21917 1-419): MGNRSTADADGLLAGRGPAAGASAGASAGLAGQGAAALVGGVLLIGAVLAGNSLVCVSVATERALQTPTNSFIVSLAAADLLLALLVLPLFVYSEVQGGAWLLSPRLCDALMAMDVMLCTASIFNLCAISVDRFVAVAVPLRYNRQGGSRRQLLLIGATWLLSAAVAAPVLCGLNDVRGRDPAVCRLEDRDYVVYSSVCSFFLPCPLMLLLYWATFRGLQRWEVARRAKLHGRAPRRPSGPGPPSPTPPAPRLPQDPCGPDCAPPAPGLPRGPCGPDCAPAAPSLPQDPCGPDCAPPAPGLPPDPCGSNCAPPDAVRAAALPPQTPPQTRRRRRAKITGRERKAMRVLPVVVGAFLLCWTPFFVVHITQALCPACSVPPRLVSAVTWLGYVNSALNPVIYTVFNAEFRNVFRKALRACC

[2] = biological target: T2, DRD4 (D4.4 variant) wild-type (Homo sapiens, UniProt P21917); test: Radioligand competition binding, [3H]-N-methylspiperone; conditions: DRD4; [3H]-methylspiperone (0.8-1.0 nM); read-out: Ki
T2 sequence (P21917 1-419): T1 sequence (P21917 1-419)

DRD4 (D4.4 variant) [3] = biological target: T1, DRD4 (D4.4 variant); test: Gαi/o-mediated cAMP inhibition (GloSensor); format: cell-based; conditions: DRD4; agonist, cAMP inhibition; read-out: EC50 ± SEM
DRD2 F1103.28A [4] = biological target: T3, DRD2 F1103.28A (Homo sapiens, UniProt P14416, F110A); test: β-arrestin2 recruitment (Tango), mutant; format: cell-based; parameters: expressed in transfected cells; host or cells: HEK293T (ATCC CRL-11268)
T3 sequence (P14416 whole entry F110A): as the sequence (P14416 whole entry) above, with F110A counted along it

DRD2 F1103.28A [5] = biological target: T3, DRD2 F1103.28A; test: Gαi/o-mediated cAMP inhibition (GloSensor), mutant; format: cell-based; parameters: expressed in transfected cells; host or cells: HEK293T (ATCC CRL-11268)
DRD3 = DRD3 (Homo sapiens, UniProt P35462); test: Gαi/o-mediated cAMP inhibition (GloSensor); format: cell-based; conditions: DRD3, cAMP inhibition
DRD3, sequence (P35462 whole entry): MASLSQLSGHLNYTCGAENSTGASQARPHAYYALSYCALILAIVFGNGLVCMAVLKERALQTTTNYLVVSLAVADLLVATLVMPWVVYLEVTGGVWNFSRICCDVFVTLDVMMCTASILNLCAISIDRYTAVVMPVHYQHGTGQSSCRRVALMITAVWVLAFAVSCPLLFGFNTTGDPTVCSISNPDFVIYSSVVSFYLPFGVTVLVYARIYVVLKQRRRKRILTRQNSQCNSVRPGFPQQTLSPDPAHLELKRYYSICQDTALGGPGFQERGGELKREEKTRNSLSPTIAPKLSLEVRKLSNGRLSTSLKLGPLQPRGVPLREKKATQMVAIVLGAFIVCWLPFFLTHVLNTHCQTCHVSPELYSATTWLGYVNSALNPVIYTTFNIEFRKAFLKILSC

DRD3 F1063.28A, sequence (P35462 whole entry F106A): as the sequence (P35462 whole entry) above, with F106A counted along it

CCOc1cccc2cc(C(C)NCC3(O)CCCCC3)oc12 (centres unmarked) [O4LE6]
Ki (DRD3 F1063.28A): 460 nM
affinity decreased, mutant vs wild type (DRD3 F1063.28A; DRD3 Phe106^3.28Ala vs wild-type DRD3): 2.09 fold
EC50 (DRD2 (D2 long receptor); DRD2, agonist, Gαi/o-mediated cAMP inhibition, read-out: EC50 ± SEM): 0.57 nM
response, Fig_S11d dose-response source data (DRD2 (D2 long receptor); Log[Drug] -6.52): 93.5634
response, Fig_S11d dose-response source data (DRD2 (D2 long receptor); Log[Drug] -7): 91.3799 and 89.9656 and 96.7642 and 92.7028 and 90.0117 and 92.9852 and 92.6706 and 90.0792 and 94.9443
response, Fig_S11d dose-response source data (DRD2 (D2 long receptor); Log[Drug] -7.52): 89.3701 and 83.9361 and 92.3724 and 89.5789 and 91.7807 and 86.0032 and 96.0478 and 86.7857 and 84.4618
response, Fig_S11d dose-response source data (DRD2 (D2 long receptor); Log[Drug] -8): 70.6367 and 72.3736 and 84.6805 and 78.0803 and 77.3651 and 77.1016 and 86.6519 and 79.5632 and 77.7576
response, Fig_S11d dose-response source data (DRD2 (D2 long receptor); Log[Drug] -8.52): 93.2656 and 95.6724 and 92.9431 and 77.1769 and 79.2659 and 71.4182 and 77.4232 and 75.6176 and 79.697
response, Fig_S11d dose-response source data (DRD2 (D2 long receptor); Log[Drug] -9): 51.5311 and 33.9143 and 52.5981 and 65.5842 and 66.7322 and 55.2712 and 58.2302 and 71.02 and 60.3368
response, Fig_S11d dose-response source data (DRD2 (D2 long receptor); Log[Drug] -9.52): 27.2398 and 43.5167 and 44.7822 and 40.3099 and 41.1379 and 42.7564 and 40.5085 and 50.7403 and 30.2265
response, Fig_S11d dose-response source data (DRD2 (D2 long receptor); Log[Drug] -10): 9.9455 and 25.9991 and 17.2652 and 20.7754 and 27.795 and 3.65 and 25.4283 and 30.0426 and 37.3152
response, Fig_S11d dose-response source data (DRD2 (D2 long receptor); Log[Drug] -10.52): 8.06 and 24.1134 and 23.7164 and -2.2029 and 14.9603 and -7.6605 and -4.2473 and 22.3855 and 15.9154
response, Fig_S11d dose-response source data (DRD2 (D2 long receptor); Log[Drug] -11): 4.9334 and 7.216 and -1.766 and -6.3996 and -4.3107 and -5.3646 and 21.048 and 18.6238 and 5.767
response, Fig_S11d dose-response source data (DRD2 (D2 long receptor); Log[Drug] -11.52): 10.5658 and 8.68 and -1.4434 and 5.588 and 4.9296 and 13.8311 and 19.0585 and 28.0698 and 34.2223
response, Fig_S11d dose-response source data (DRD2 (D2 long receptor); Log[Drug] -12): -7.7209 and 3.569 and -11.1202 and -5.7974 and -18.3122 and 14.3957 and 12.4212 and 21.7836 and -1.1209
Emax (DRD2 (D2 long receptor); HEK-293T, read-out: Emax relative to quinpirole response, DRD2, cAMP inhibition): 94.8%
Response, Fig_S11b dose-response (DRD2 (D2 long receptor); Log[Drug] -5): 94.6799 and 95.4987 and 95.201 and 94.3966 and 96.6361 and 95.6198 and 95.7635 and 88.9256 and 95.1617
Response, Fig_S11b dose-response (DRD2 (D2 long receptor); Log[Drug] -5.52): 94.4814 and 96.3424 and 99.171 and 96.9372 and 94.2837 and 95.6198 and 98.4051 and 98.5221 and 95.5796
Response, Fig_S11b dose-response (DRD2 (D2 long receptor); Log[Drug] -6): 96.5905 and 98.1785 and 100.163 and 88.2615 and 91.4043 and 96.2597 and 93.8409 and 94.9611 and 95.7301
Response, Fig_S11b dose-response (DRD2 (D2 long receptor); Log[Drug] -6.52): 93.5634 and 99.7168 and 93.0671 and 101.473 and 96.4667 and 100.061 and 98.4218 and 97.9202 and 92.704
Response, Fig_S11b dose-response (DRD2 (D2 long receptor); Log[Drug] -7): 91.3799 and 89.9656 and 96.7642 and 92.7028 and 90.0117 and 92.9852 and 92.6706 and 90.0792 and 94.9443
Response, Fig_S11b dose-response (DRD2 (D2 long receptor); Log[Drug] -7.52): 89.3701 and 83.9361 and 92.3724 and 89.5789 and 91.7807 and 86.0032 and 96.0478 and 86.7857 and 84.4618
Response, Fig_S11b dose-response (DRD2 (D2 long receptor); Log[Drug] -8): 70.6367 and 72.3736 and 84.6805 and 78.0803 and 77.3651 and 77.1016 and 86.6519 and 79.5632 and 77.7576
Response, Fig_S11b dose-response (DRD2 (D2 long receptor); Log[Drug] -8.52): 93.2656 and 95.6724 and 92.9431 and 77.1769 and 79.2659 and 71.4182 and 77.4232 and 75.6176 and 79.697
Response, Fig_S11b dose-response (DRD2 (D2 long receptor); Log[Drug] -9): 51.5311 and 33.9143 and 52.5981 and 65.5842 and 66.7322 and 55.2712 and 58.2302 and 71.02 and 60.3368
Response, Fig_S11b dose-response (DRD2 (D2 long receptor); Log[Drug] -11): 4.9334
Response, Fig_S11b dose-response (DRD2 (D2 long receptor); Log[Drug] -11.52): 10.5658 and 8.68 and -1.4434 and 5.588 and 4.9296 and 13.8311 and 19.0585 and 28.0698 and 34.2223
Response, Fig_S11b dose-response (DRD2 (D2 long receptor); Log[Drug] -12): -7.7209 and 3.569 and -11.1202 and -5.7974 and -18.3122 and 14.3957 and 12.4212 and 21.7836 and -1.1209
EC50 (DRD4 (D4.4 variant) [1]): > 10000 nM
Ki [2]: > 10000 nM
EC50 (DRD4 (D4.4 variant) [3]): > 10000 nM
EC50 (DRD2 F1103.28A [4]): > 10000 nM
EC50 (DRD2 F1103.28A [5]): > 10000 nM
EC50 (DRD3; agonist, read-out: EC50 ± SEM): 5.09 ± 0.16 nM
Emax (DRD3; read-out: Emax relative to quinpirole response): 62.4%
